Results from PubChem BioAssay (NCI).
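Method: 48-hour compound exposure of cells in 96-well plates, five concentrations, linear interpolation of endpoints. TGI is the concentration that stops growth completely.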

These compounds were tested on HCT-15 colon (assay: DTP human tumour cell line panel, 48 h).

Compound | TGI
N#C/C(N)=C(\C#N)NC=NCCO | > 100 µM
CC(=O)Nc1cc2ccc(=O)oc2cc1Cl | > 100 µM

What follows are compounds tested on SF-295 CNS (assay: DTP human tumour cell line panel, 48 h).

Compound | TGI
Br[Se]c1ccccn1 | 17 µM
CCOC(=O)c1cn2c(n1)sc1cc(F)ccc12 | > 100 µM
N#C/C(N)=C(\C#N)NC=NCCO | > 100 µM
CC(=O)Nc1cc2ccc(=O)oc2cc1Cl | > 100 µM

What follows are compounds tested on MDA-MB-231 breast (assay: DTP human tumour cell line panel, 48 h).

Compound | TGI
Br[Se]c1ccccn1 | 31.5 µM
CCOC(=O)c1cn2c(n1)sc1cc(F)ccc12 | > 100 µM
N#C/C(N)=C(\C#N)NC=NCCO | > 100 µM
CC(=O)Nc1cc2ccc(=O)oc2cc1Cl | > 100 µM

Each compound was assayed on SK-MEL-2 melanoma (assay: DTP human tumour cell line panel, 48 h).

Compound | TGI
Br[Se]c1ccccn1 | 30.1 µM
CCOC(=O)c1cn2c(n1)sc1cc(F)ccc12 | > 100 µM
N#C/C(N)=C(\C#N)NC=NCCO | > 100 µM
CC(=O)Nc1cc2ccc(=O)oc2cc1Cl | > 100 µM

These compounds were tested on SF-268 CNS (assay: DTP human tumour cell line panel, 48 h).

Compound | TGI
Br[Se]c1ccccn1 | 32.2 µM
CCOC(=O)c1cn2c(n1)sc1cc(F)ccc12 | > 100 µM
N#C/C(N)=C(\C#N)NC=NCCO | > 100 µM
CC(=O)Nc1cc2ccc(=O)oc2cc1Cl | > 100 µM

What follows are compounds tested on HCC-2998 colon (assay: DTP human tumour cell line panel, 48 h).

Compound | TGI
Br[Se]c1ccccn1 | 35.5 µM
CCOC(=O)c1cn2c(n1)sc1cc(F)ccc12 | > 100 µM
N#C/C(N)=C(\C#N)NC=NCCO | > 100 µM
CC(=O)Nc1cc2ccc(=O)oc2cc1Cl | > 100 µM

What follows are compounds tested on KM12 colon (assay: DTP human tumour cell line panel, 48 h).

Compound | TGI
Br[Se]c1ccccn1 | 31.7 µM
CCOC(=O)c1cn2c(n1)sc1cc(F)ccc12 | > 100 µM
N#C/C(N)=C(\C#N)NC=NCCO | > 100 µM
CC(=O)Nc1cc2ccc(=O)oc2cc1Cl | > 100 µM

What follows are compounds tested on COLO 205 colon (assay: DTP human tumour cell line panel, 48 h).

Compound | TGI
Br[Se]c1ccccn1 | 30.8 µM
CCOC(=O)c1cn2c(n1)sc1cc(F)ccc12 | > 100 µM
N#C/C(N)=C(\C#N)NC=NCCO | > 100 µM
CC(=O)Nc1cc2ccc(=O)oc2cc1Cl | > 100 µM

These compounds were tested on EKVX NSCLC (assay: DTP human tumour cell line panel, 48 h).

Compound | TGI
Br[Se]c1ccccn1 | 31.5 µM
CCOC(=O)c1cn2c(n1)sc1cc(F)ccc12 | > 100 µM
N#C/C(N)=C(\C#N)NC=NCCO | > 100 µM
CC(=O)Nc1cc2ccc(=O)oc2cc1Cl | > 100 µM

These compounds were tested on MOLT-4 leukemia (assay: DTP human tumour cell line panel, 48 h).

Compound | TGI
CCOC(=O)c1cn2c(n1)sc1cc(F)ccc12 | > 100 µM
N#C/C(N)=C(\C#N)NC=NCCO | > 100 µM
CC(=O)Nc1cc2ccc(=O)oc2cc1Cl | > 100 µM

The compounds below were run on LOX IMVI melanoma (assay: DTP human tumour cell line panel, 48 h).

Compound | TGI
Br[Se]c1ccccn1 | 33 µM
CCOC(=O)c1cn2c(n1)sc1cc(F)ccc12 | > 100 µM
N#C/C(N)=C(\C#N)NC=NCCO | > 100 µM
CC(=O)Nc1cc2ccc(=O)oc2cc1Cl | > 100 µM

Each compound was assayed on UACC-257 melanoma (assay: DTP human tumour cell line panel, 48 h).

Compound | TGI
Br[Se]c1ccccn1 | 31.7 µM
CCOC(=O)c1cn2c(n1)sc1cc(F)ccc12 | > 100 µM
N#C/C(N)=C(\C#N)NC=NCCO | > 100 µM
CC(=O)Nc1cc2ccc(=O)oc2cc1Cl | > 100 µM

These compounds were tested on HOP-62 NSCLC (assay: DTP human tumour cell line panel, 48 h).

Compound | TGI
Br[Se]c1ccccn1 | 12.2 µM
CCOC(=O)c1cn2c(n1)sc1cc(F)ccc12 | > 100 µM
N#C/C(N)=C(\C#N)NC=NCCO | > 100 µM
CC(=O)Nc1cc2ccc(=O)oc2cc1Cl | > 100 µM

Each compound was assayed on SF-539 CNS (assay: DTP human tumour cell line panel, 48 h).

Compound | TGI
Br[Se]c1ccccn1 | 30 µM
CCOC(=O)c1cn2c(n1)sc1cc(F)ccc12 | > 100 µM
N#C/C(N)=C(\C#N)NC=NCCO | > 100 µM
CC(=O)Nc1cc2ccc(=O)oc2cc1Cl | > 100 µM

The compounds below were run on NCI-H522 lung (assay: DTP human tumour cell line panel, 48 h).

Compound | TGI
Br[Se]c1ccccn1 | 30.4 µM
CCOC(=O)c1cn2c(n1)sc1cc(F)ccc12 | > 100 µM
N#C/C(N)=C(\C#N)NC=NCCO | > 100 µM
CC(=O)Nc1cc2ccc(=O)oc2cc1Cl | > 100 µM

The compounds below were run on HCT-116 colon (assay: DTP human tumour cell line panel, 48 h).

Compound | TGI
Br[Se]c1ccccn1 | 33 µM
CCOC(=O)c1cn2c(n1)sc1cc(F)ccc12 | > 100 µM
N#C/C(N)=C(\C#N)NC=NCCO | > 100 µM
CC(=O)Nc1cc2ccc(=O)oc2cc1Cl | > 100 µM

These compounds were tested on NCI-H226 lung (assay: DTP human tumour cell line panel, 48 h).

Compound | TGI
Br[Se]c1ccccn1 | 36.8 µM
CCOC(=O)c1cn2c(n1)sc1cc(F)ccc12 | > 100 µM
N#C/C(N)=C(\C#N)NC=NCCO | > 100 µM
CC(=O)Nc1cc2ccc(=O)oc2cc1Cl | > 100 µM

The compounds below were run on K-562 leukemia (assay: DTP human tumour cell line panel, 48 h).

Compound | TGI
Br[Se]c1ccccn1 | 72 µM
CCOC(=O)c1cn2c(n1)sc1cc(F)ccc12 | > 100 µM
N#C/C(N)=C(\C#N)NC=NCCO | > 100 µM
CC(=O)Nc1cc2ccc(=O)oc2cc1Cl | > 100 µM

The compounds below were run on RXF 393 renal (assay: DTP human tumour cell line panel, 48 h).

Compound | TGI
Br[Se]c1ccccn1 | 31 µM
CCOC(=O)c1cn2c(n1)sc1cc(F)ccc12 | > 100 µM
CC(=O)Nc1cc2ccc(=O)oc2cc1Cl | > 100 µM

Each compound was assayed on RPMI-8226 leukemia (assay: DTP human tumour cell line panel, 48 h).

Compound | TGI
Br[Se]c1ccccn1 | 60.9 µM
CCOC(=O)c1cn2c(n1)sc1cc(F)ccc12 | > 100 µM
N#C/C(N)=C(\C#N)NC=NCCO | > 100 µM
CC(=O)Nc1cc2ccc(=O)oc2cc1Cl | > 100 µM

What follows are compounds tested on SK-OV-3 ovarian (assay: DTP human tumour cell line panel, 48 h).

Compound | TGI
Br[Se]c1ccccn1 | 34.8 µM
CCOC(=O)c1cn2c(n1)sc1cc(F)ccc12 | > 100 µM
N#C/C(N)=C(\C#N)NC=NCCO | > 100 µM

What follows are compounds tested on NCI-H460 lung (assay: DTP human tumour cell line panel, 48 h).

Compound | TGI
Br[Se]c1ccccn1 | 42 µM
CCOC(=O)c1cn2c(n1)sc1cc(F)ccc12 | > 100 µM
N#C/C(N)=C(\C#N)NC=NCCO | > 100 µM
CC(=O)Nc1cc2ccc(=O)oc2cc1Cl | > 100 µM

Each compound was assayed on UACC-62 melanoma (assay: DTP human tumour cell line panel, 48 h).

Compound | TGI
Br[Se]c1ccccn1 | 30.9 µM
CCOC(=O)c1cn2c(n1)sc1cc(F)ccc12 | > 100 µM
N#C/C(N)=C(\C#N)NC=NCCO | > 100 µM
CC(=O)Nc1cc2ccc(=O)oc2cc1Cl | > 100 µM

The compounds below were run on SNB-19 CNS (assay: DTP human tumour cell line panel, 48 h).

Compound | TGI
Br[Se]c1ccccn1 | 24.8 µM
CCOC(=O)c1cn2c(n1)sc1cc(F)ccc12 | > 100 µM
N#C/C(N)=C(\C#N)NC=NCCO | > 100 µM
CC(=O)Nc1cc2ccc(=O)oc2cc1Cl | > 100 µM

The compounds below were run on ACHN renal (assay: DTP human tumour cell line panel, 48 h).

Compound | TGI
Br[Se]c1ccccn1 | 29.9 µM
CCOC(=O)c1cn2c(n1)sc1cc(F)ccc12 | > 100 µM
N#C/C(N)=C(\C#N)NC=NCCO | > 100 µM
CC(=O)Nc1cc2ccc(=O)oc2cc1Cl | > 100 µM

Each compound was assayed on M14 melanoma (assay: DTP human tumour cell line panel, 48 h).

Compound | TGI
Br[Se]c1ccccn1 | 31.7 µM
CCOC(=O)c1cn2c(n1)sc1cc(F)ccc12 | > 100 µM
N#C/C(N)=C(\C#N)NC=NCCO | > 100 µM
CC(=O)Nc1cc2ccc(=O)oc2cc1Cl | > 100 µM

These compounds were tested on MCF7 breast (assay: DTP human tumour cell line panel, 48 h).

Compound | TGI
Br[Se]c1ccccn1 | 32.5 µM
CCOC(=O)c1cn2c(n1)sc1cc(F)ccc12 | > 100 µM
N#C/C(N)=C(\C#N)NC=NCCO | > 100 µM
CC(=O)Nc1cc2ccc(=O)oc2cc1Cl | > 100 µM

The compounds below were run on CCRF-CEM leukemia (assay: DTP human tumour cell line panel, 48 h).

Compound | TGI
Br[Se]c1ccccn1 | > 100 µM
CCOC(=O)c1cn2c(n1)sc1cc(F)ccc12 | > 100 µM
N#C/C(N)=C(\C#N)NC=NCCO | > 100 µM
CC(=O)Nc1cc2ccc(=O)oc2cc1Cl | > 100 µM

What follows are compounds tested on HT29 colon (assay: DTP human tumour cell line panel, 48 h).

Compound | TGI
Br[Se]c1ccccn1 | 53.9 µM
CCOC(=O)c1cn2c(n1)sc1cc(F)ccc12 | > 100 µM
N#C/C(N)=C(\C#N)NC=NCCO | > 100 µM
CC(=O)Nc1cc2ccc(=O)oc2cc1Cl | > 100 µM

The compounds below were run on T-47D breast (assay: DTP human tumour cell line panel, 48 h).

Compound | TGI
Br[Se]c1ccccn1 | 54.1 µM
CCOC(=O)c1cn2c(n1)sc1cc(F)ccc12 | > 100 µM
N#C/C(N)=C(\C#N)NC=NCCO | > 100 µM
CC(=O)Nc1cc2ccc(=O)oc2cc1Cl | > 100 µM
